In the NIST ThermoML archive (doi:10.1016/j.fluid.2012.12.014):
Numbers after ± are expanded uncertainties.

Conditions: Liquid, Closed cell (Static) method

## O [water]
383.2 K
  vapor or sublimation pressure: 142.5 ± 2.1 kPa
393.2 K
  vapor or sublimation pressure: 198.7 ± 2.2 kPa
403.2 K
  vapor or sublimation pressure: 270 ± 2.5 kPa
413.2 K
  vapor or sublimation pressure: 361.7 ± 2.8 kPa
423.2 K
  vapor or sublimation pressure: 476.1 ± 3 kPa
